From patent US8563013B2, “Systems and methods for delivering a fluid drug” (Janssen Biotech, Inc., priority 2007, dated 2013)

Test: Light-induced degradation of a carbidopa-containing fluid formulation
Type: physicochemical
Settings: fluid formulation having carbidopa; visible light with wavelengths in the range of about 400 nm to about 550 nm
Excerpt: In some embodiments, the reservoir, and/or other portions of a dosing container, can be adapted to hinder exposure of a contained fluid from portions of a light spectrum, which can be capable of degrading or rendering one or more components of a fluid ineffective. […] Accordingly, if a container is adapted to hinder a carbidopa-containing fluid from being exposed to at least wavelengths in about the 400 nm to about 550 nm range, preservation of the carbidopa can be enhanced. As well, other embodiments can utilize other techniques, in combination or alone, which effectively reduce degradation of a carbidopa-containing fluid in the presence of visible light, such as adding a dye to the carbidopa-containing fluid (e.g., FD&C Yellow 6) to absorb the undesired light components. Other techniques, including ones familiar to those skilled in the art, can also be used.

degradation on exposure to light: found to degrade
Compound: C[C@@](Cc1ccc(O)c(O)c1)(NN)C(=O)O [carbidopa]
